Test results: US5547962A, “5-amino-8-methyl-7-pyrrolidinylquinoline-3-carboxylic acid derivative” (priority 1993, dated 1996)
≈ marks a conversion by molar mass, not a printed value. Entries after “also recorded” stand apart in the source; their conditions may differ. Where two headings read alike, the source gives them in different places.

Tests used:
A. calcoaceticus HNR916 = assay: Antibacterial activity, MIC by agar dilution; type: cell-based; conditions: Acinetobacter calcoaceticus, clinically isolated strain, gram -
From the text: (§1) The strains employed were as follows:
(§2) Acinetobacter calcoaceticus (A. calcoaceticus)

A. calcoaceticus HNR904 = assay: Antibacterial activity, MIC by agar dilution; type: cell-based; conditions: Acinetobacter calcoaceticus, clinically isolated strain, gram -
From the text: as §1, §2

A. calcoaceticus HNR939 = assay: Antibacterial activity, MIC by agar dilution; type: cell-based; conditions: Acinetobacter calcoaceticus, clinically isolated strain, gram -
From the text: as §1, §2

S. marcescens IAM 1184 = assay: Antibacterial activity, MIC by agar dilution; type: cell-based; conditions: Serratia marcescens, IAM1184; laboratory standard strain, gram -
From the text: as §1
(§3) Serratia marcescens (S. marcescens)

S. marcescens HNR1544 = assay: Antibacterial activity, MIC by agar dilution; type: cell-based; conditions: Serratia marcescens, clinically isolated strain, gram -
From the text: as §1, §3

S. marcescens HNR1767 = assay: Antibacterial activity, MIC by agar dilution; type: cell-based; conditions: Serratia marcescens, clinically isolated strain, gram -
From the text: as §1, §3

S. marcescens HNR1792 = assay: Antibacterial activity, MIC by agar dilution; type: cell-based; conditions: Serratia marcescens, clinically isolated strain, gram -
From the text: as §1, §3

[1] = tested on: clinically isolated strains (HPC527, HPC308 and HPC292) of S aureus; assay: Comparison with analogous compounds: antibacterial activity (MIC) against clinically isolated strains of S. aureus; type: cell-based, Staphylococcus aureus; conditions: comparison to Tables 7 and 8
Method: Minimum inhibitory concentrations (MICs) of test compounds were determined by agar dilution procedure as described in the standard method of the Japan Society of Chemotherapy (Chemotherapy (Tokyo), 29,1, 76 (1981)). The strains employed were as follows:
All the data of the antibacterial activity, chromosomal aberration activity, phototoxicity and inducement of convulsions were obtained from the same tests methods as those described above. Among this, the data of the antibacterial activity shown in Tables 7 and 8 are MICs (minimum inhibitory concentrations) value against clinically isolated strains (HPC527, HPC308 and HPC292) of S aureus which is a representative gram-positive bacteria.

[2] = tested on: polychromatic erythrocytes (PCEs); assay: Micronucleus test, bone marrow of mice; type: in vivo, BDF 1 mice; conditions: percent of the number of MNPCEs per 1,000 PCEs; 250 mg/kg i.p., 24 h
Method: Nine-week-old male BDF 1 mice were used in this test. The test compounds were injected intraperitoneally with a dose of 250 mg/kg. After 24 h mice were sacrificed and the bone marrow of the femur was collected. Bone marrow smears were fixed on the slides with methanol and stained with Giemsa according to the usual method. For each animal, the number of micronucleated polychromatic erythrocytes (MNPCEs) per 1,000 polychromatic erythrocytes (PCEs) was counted under the microscope. Cyclophosphamide was used as a positive control.

CHL cells [3] = assay: Chromosomal aberration test with a Chinese hamster lung cell line (CHL); type: cell-based
Method: The chromosomal aberration test was conducted with a Chinese hamster lung cell line (CHL). 2-(2-Furyl)-3-(5-nitro-2-furyl)acrylamide was used as a positive control. Cells treated with the test compounds were cultured for 6 h at 37° C. in 5% CO2 -humidified air. Following the 6 h treatment the cells were washed. Fresh medium was added to the washed cells and they were cultured for a further 18 h. Colcemide was added to the cultures 2 h before the fixation of chromosome preparation, in order to collect metaphase cells.

K. pneumoniae HNR858 = assay: Antibacterial activity, MIC by agar dilution; type: cell-based; conditions: Klebsiella pneumoniae, clinically isolated strain, gram -
From the text: as §1
(§4) Klebsiella pneumoniae (K. pneumoniae)

K. pneumoniae HNR828 = assay: Antibacterial activity, MIC by agar dilution; type: cell-based; conditions: Klebsiella pneumoniae, clinically isolated strain, gram -
From the text: as §1, §4

K. pneumoniae PCI-602 = assay: Antibacterial activity, MIC by agar dilution; type: cell-based; conditions: Klebsiella pneumoniae, PCI602; laboratory standard strain, gram -
From the text: as §1, §4

K. pneumoniae HNR869 = assay: Antibacterial activity, MIC by agar dilution; type: cell-based; conditions: Klebsiella pneumoniae, clinically isolated strain, gram -
From the text: as §1, §4

Male Hartley guinea pigs = type: in vivo; conditions: 10 mg/kg i.v.; for Phototoxicity: number of animals with erythemas/number of animals tested: UVA 90 minutes, 24 h after irradiation; for phototoxicity, in words: UVA
Method: Male Hartley guinea pigs were intravenously administered test compounds at a dose of 10 mg/kg, and immediately exposed to UVA on their backs for 90 minutes.

S. aureus HPC308 = assay: Antibacterial activity, MIC by agar dilution; type: cell-based; conditions: Staphylococcus aureus, clinically isolated strain, gram +
From the text: as §1
(§5) Staphylococcus aureus (S. aureus)

S. aureus HPC292 = assay: Antibacterial activity, MIC by agar dilution; type: cell-based; conditions: Staphylococcus aureus, clinically isolated strain, gram +
From the text: as §1, §5

S. aureus FDA 209P JC-1 = assay: Antibacterial activity, MIC by agar dilution; type: cell-based; conditions: Staphylococcus aureus, FDA209P; laboratory standard strain, gram +
From the text: as §1, §5

S. aureus HPC527 = assay: Antibacterial activity, MIC by agar dilution; type: cell-based; conditions: Staphylococcus aureus, clinically isolated strain, gram +
From the text: as §1, §5

E. faecalis HPC984 = assay: Antibacterial activity, MIC by agar dilution; type: cell-based; conditions: Enterococcus faecalis, clinically isolated strain, gram +
From the text: as §1
(§6) Enterococcus faecalis (E. faecalis)

E. faecalis HPC948 = assay: Antibacterial activity, MIC by agar dilution; type: cell-based; conditions: Enterococcus faecalis, clinically isolated strain, gram +
From the text: as §1, §6

E. faecalis HPC975 = assay: Antibacterial activity, MIC by agar dilution; type: cell-based; conditions: Enterococcus faecalis, clinically isolated strain, gram +
From the text: as §1, §6

E. coli NIHJ JC-2 = assay: Antibacterial activity, MIC by agar dilution; type: cell-based; conditions: Escherichia coli, NIHJJC2; laboratory standard strain, gram -
From the text: as §1
Escherichia coli (E. coli)

E. cloacae HNR1941 = assay: Antibacterial activity, MIC by agar dilution; type: cell-based; conditions: Enterobacter cloacae, clinically isolated strain, gram -
From the text: as §1
(§7) Enterobacter cloacae (E. cloacae)

E. cloacae 963 = assay: Antibacterial activity, MIC by agar dilution; type: cell-based; conditions: Enterobacter cloacae, laboratory standard strain, gram -
From the text: as §1, §7

E. cloacae HNR1939 = assay: Antibacterial activity, MIC by agar dilution; type: cell-based; conditions: Enterobacter cloacae, clinically isolated strain, gram -
From the text: as §1, §7

E. cloacae HNR1946 = assay: Antibacterial activity, MIC by agar dilution; type: cell-based; conditions: Enterobacter cloacae, clinically isolated strain, gram -
From the text: as §1, §7

[4] = Tissue distribution after oral administration, HPLC; type: in vivo, Sprague-Dawley rats; conditions: for Kp: po, 5 mg/kg
Method: Seven-week-old male Sprague-Dawley rats were used. The test compounds were orally administered at a dose of 5 mg/kg to rats fasted overnight. At intervals of 0.083, 0.25, 0.5, 1, 2, 4, 6, 8, 12 and 24 h after administration, the rats were anesthetized with ether and blood samples were taken from the abdominal aorta. Plasma samples were obtained from the blood samples in the usual way. The lungs and kidneys were removed after collection of blood, and homogenated with 4 ml and 7 ml of 1 M HCl-citrate buffer (pH 4.0), respectively.
The concentration of the test compounds in the biological fluids (plasma and in each tissue tested) was determined by HPLC method. Hydrochloric acid and ether were added to 0.5 ml of plasma or 0.5 g of each tissue homogenate. The mixture was shaken and centrifuged. After the removal of the organic phase, aq. NaOH solution, phosphate buffer (pH 7.0) and chloroform were added to the aqueous phase. The mixture was shaken and centrifuged. The organic phase was then concentrated. The residue was dissolved and subjected to HPLC. The concentration of the test compounds in each biological fluid at Tmax (time of the maximum concentration in plasma) is shown in Table 6.

CHL cells [5] = conditions: 31th ICAAC, Abstract No. 1507 (1991); cited from earlier work
[6] = times higher than ciprofloxacin, at Tmax

SMILES | MIC (A. calcoaceticus HNR916) [µg/mL] | MIC (A. calcoaceticus HNR904) [µg/mL] | MIC (A. calcoaceticus HNR939) [µg/mL] | MIC (S. marcescens IAM 1184) [µg/mL] | MIC (S. marcescens HNR1544) [µg/mL] | MIC (S. marcescens HNR1767) [µg/mL] | MIC (S. marcescens HNR1792) [µg/mL] | Incidence of MNPCEs [2] [%] | toxicity (chromosomal aberration), in words (CHL cells [3]) | MIC (K. pneumoniae HNR858) [µg/mL] | MIC (K. pneumoniae HNR828) [µg/mL] | MIC (K. pneumoniae PCI-602) [µg/mL] | MIC (K. pneumoniae HNR869) [µg/mL] | Phototoxicity: number of animals with erythemas/number of animals tested (Male Hartley guinea pigs) | MIC (S. aureus HPC308) [µg/mL] | MIC (S. aureus HPC292) [µg/mL] | MIC (S. aureus FDA 209P JC-1) [µg/mL] | MIC (S. aureus HPC527) [µg/mL] | MIC (E. faecalis HPC984) [µg/mL] | MIC (E. faecalis HPC948) [µg/mL] | also measured
Cc1c(N2C[C@@H](N)C3(CC3)C2)c(F)c(N)c2c(=O)c(C(=O)O)cn(C3CC3)c12 [Example 10, 5-Amino-7-((S)-7-amino-5-azaspiro[2.4]hept-5-yl)-1-cyclopropyl-6-fluoro-1,4-dihydro-8-methyl-4-oxoquinoline-3-carboxylic acid] | 0.012 (≈ 0.0311 µM) | 1.56 (≈ 4.04 µM) | 0.2 (≈ 0.518 µM) | 0.1 (≈ 0.259 µM) | 0.05 (≈ 0.129 µM) | 6.25 (≈ 16.2 µM) | 3.13 (≈ 8.1 µM) | 0.18 | did not show | 0.2 (≈ 0.518 µM) | 3.13 (≈ 8.1 µM) | 0.003 (≈ 0.00776 µM) | 1.56 (≈ 4.04 µM) | 0/5 | 0.39 | 1.56 | 0.025 | 0.025 | 0.1 | 0.39 | antibacterial activity compared with reference compound, in words [1]: higher antibacterial activity than the analogous reference compound B; also recorded: excellent antibacterial activity as potent as the analogous reference compound C; also recorded: much higher antibacterial activity than the analogous reference compound I; MIC (E. faecalis HPC975): 1.56 µg/mL; MIC (E. coli NIHJ JC-2): 0.012 µg/mL (≈ 0.0311 µM); MIC (E. cloacae HNR1941): 3.13 µg/mL (≈ 8.1 µM); MIC (E. cloacae 963): 0.025 µg/mL (≈ 0.0647 µM); MIC (E. cloacae HNR1939): 0.1 µg/mL (≈ 0.259 µM); MIC (E. cloacae HNR1946): 0.2 µg/mL (≈ 0.518 µM); Tmax ([4]; plasma, rat, 5 mg/kg oral): 15 min; Cmax ([4]; plasma, rat, 5 mg/kg oral, read-out: Concentration in plasma at Tmax): 580 ng/mL; Concentration in kidney at Tmax ([4]; rat, 5 mg/kg oral): 8.5 µg/g; Concentration in lung at Tmax ([4]; rat, 5 mg/kg oral): 4.0 µg/g; Kp ([4]; rat, kidney, read-out: concentration ratio (tissue/plasma), kidney): 15; Kp ([4]; rat, lung, read-out: concentration ratio (tissue/plasma), lung): 6.9; a/b: concentration ratio (tissue/plasma) kidney, Example 10/ciprofloxacin [4, 6]: 4.2; a/b: concentration ratio (tissue/plasma) lung, Example 10/ciprofloxacin [4, 6]: 8.6; a/b: kidney concentration, Example 10/ciprofloxacin [4, 6]: 7.4; a/b: lung concentration, Example 10/ciprofloxacin [4, 6]: 16
Cc1c(N2CC[C@H](N)C2)c(F)c(N)c2c(=O)c(C(=O)O)cn(C3CC3)c12.Cl [Example 12, 5-Amino-7-((S)-3-amino-1-pyrrolidinyl)-1-cyclopropyl-6-fluoro-1,4-dihydro-8-methyl-4-oxoquinoline-3-carboxylic acid hydrochloride] | 0.05 | 12.5 | 0.78 | 0.1 | 0.05 | 12.5 | 1.56 | 0.16 | did not show | 0.2 | 3.13 | 0.006 | 1.56 | 0/5 | 0.78 | 1.56 | 0.025 | 0.025 | 0.1 | 0.39 | antibacterial activity compared with reference compound, in words ([1]; hydrochloride): much higher antibacterial activity than the analogous reference compound E; also recorded: higher antibacterial activity than the analogous reference compound F; also recorded: much higher antibacterial activity than the analogous reference compound I; phototoxicity, in words (Male Hartley guinea pigs): did not show; MIC (E. faecalis HPC975): 1.56 µg/mL; MIC (E. coli NIHJ JC-2): 0.025 µg/mL; MIC (E. cloacae HNR1941): 6.25 µg/mL; MIC (E. cloacae 963): 0.025 µg/mL; MIC (E. cloacae HNR1939): 0.2 µg/mL; MIC (E. cloacae HNR1946): 0.2 µg/mL
Cc1c(N2C[C@@H](N)C3(CC3)C2)c(F)cc2c(=O)c(C(=O)O)cn(C3CC3)c12 [Reference Compound C, 7-((S)-7-amino-5-azaspiro[2.4]hept-5-yl)-1-cyclopropyl-6-fluoro-1,4-dihydro-8-methyl-4-oxoquinoline-3-carboxylic acid] | – | – | – | – | – | – | – | – | observed | – | – | – | – | – | – | – | – | – | – | – | phototoxicity, in words (Male Hartley guinea pigs): no phototoxicity; death of guinea pigs (Male Hartley guinea pigs; phototoxicity test): death of one guinea pig out of five; chromosomal aberrational activity, in words (CHL cells [5]): potent chromosomal aberrational activity
